PMC10447463, “Data-mining unveils structure–property–activity correlation of viral infectivity enhancing self-assembling peptides” (Nature Communications, 2023)
Like-named read-outs stand apart in the source and are kept apart here.

What was measured:
[1] = format: physicochemical; details: for ThT Cat. / ThT-Fluorescence (categorical): ThT-active if fluorescence at least twice the control
Summary of the method: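 Preformed peptide fibrils (1 mg/mL) mixed with 50 µM ThT in PBS, 15 min at RT, fluorescence ex 440/em 488 nm versus PBS blank, triplicates. Zeta potential: peptides at 1 mg/mL in PBS pH 7.4, aged 1 d at RT, diluted in 1 mM KCl, Smoluchowski from electrophoretic mobility.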

[2] = Turbidity, derived count rate of scattered light; format: physicochemical; details: for Count Rate / kcps: derived count rate of scattered light at 633 nm, 173°, from zeta-potential measurement, 0.1 mg/mL in 1 mM KCl after 1 d at 1 mg/mL in PBS, turbidity / microscopic aggregation, mean of triplicate
Summary of the method: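 Samples: 1 mg/mL in PBS pH 7.4 (from DMSO), 1 d at RT, then diluted in 1 mM KCl immediately before measurement. Triplicates, two independent runs averaged.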

[3] = Log10 of derived count rate of scattered light (turbidity)
[4] = log10 of derived count rate of scattered light (turbidity)
[5] = turbidity, Log10 of derived count rate of scattered light, Figure 3A source data
[6] = ThT fluorescence category, 1 if Rel. ThT >2

Substance | Tht category (> 2 to blank = +) ([1]; Fig S10 panel D) | ThT Cat, ([1]; ThT category, 1 if Rel. ThT >2) | ThT Cat. ([1]; ThT category, 1 if Rel. ThT >2) | ThT Cat. / ThT-Fluorescence (categorical) [1] | Log10 Count Rate [2, 3] | Count Rate / kcps [2] [kcps] | Log10 Count Rate [2, 4] | Log10 Count Rate [2, 5] | ThT Cat. ([1]; Fig S10 panel E) | Tht category (> 2 to blank = +) ([1]; FigS12 panel A) | ThT Cat, ([1]; FigS12 panel B) | ThT Cat. [1, 6] | Log10 Count Rate ([2]; logarithm of count rate in kcps) | Log10 Count Rate ([2]; turbidity, log10 of derived count rate of scattered light)
KIKIQIMWNQ | 0 (ThT-inactive (N-Fold <2)) | 0 (ThT-inactive (N-Fold <2)) | 0 (ThT-inactive (N-Fold <2)) | 0 (ThT-inactive (N-Fold <2)) | 3.2757 | 1887 | 3.2757 | 3.2757 |  |  |  |  |  | 
CKIW | 0 (ThT-inactive (N-Fold <2)) | 0 (ThT-inactive (N-Fold <2)) | 0 (ThT-inactive (N-Fold <2)) | 0 (ThT-inactive (N-Fold <2)) | 0.5051 | 3 | 0.5051 | 0.5051 | 0 (ThT-inactive (N-Fold <2)) | 0 (ThT-inactive (N-Fold <2)) | 0 (ThT-inactive (N-Fold <2)) |  |  | 
KIKIQII | 0 (ThT-inactive (N-Fold <2)) | 0 (ThT-inactive (N-Fold <2)) |  | 0 (ThT-inactive (N-Fold <2)) | 3.017 | 1039 | 3.017 | 3.017 |  | 0 (ThT-inactive (N-Fold <2)) | 0 (ThT-inactive (N-Fold <2)) | 0 (ThT-inactive (N-Fold <2)) |  | 
CKIKQIINMWQ | 1 (ThT. Cat is 1, if Rel. ThT >2) | 1 (ThT. Cat is 1, if Rel. ThT >2) |  | 1 (ThT. Cat is 1, if Rel. ThT >2) | 3.92 | 8317 | 3.92 | 3.92 | 1 (ThT. Cat is 1, if Rel. ThT >2) |  |  | 1 (ThT. Cat is 1, if Rel. ThT >2) | 3.92 | 
MKIKIQINM | 0 (ThT-inactive (N-Fold <2)) | 0 (ThT-inactive (N-Fold <2)) |  | 0 (ThT-inactive (N-Fold <2)) | 2.9918 | 981 | 2.9918 | 2.9918 |  |  |  | 0 (ThT-inactive (N-Fold <2)) |  | 
QCKFKQFFNMWQ | 1 (ThT. Cat is 1, if Rel. ThT >2) | 1 (ThT. Cat is 1, if Rel. ThT >2) | 1 (ThT. Cat is 1, if Rel. ThT >2) | 1 (ThT. Cat is 1, if Rel. ThT >2) | 4.277 | 18911 |  | 4.277 | 1 (ThT. Cat is 1, if Rel. ThT >2) |  |  |  |  | 4.277
CKIKIQIRGD | 0 (ThT-inactive (N-Fold <2)) | 0 (ThT-inactive (N-Fold <2)) |  | 0 (ThT-inactive (N-Fold <2)) | 3.762 | 5777 | 3.762 | 3.762 | 0 (ThT-inactive (N-Fold <2)) |  |  | 0 (ThT-inactive (N-Fold <2)) |  | 
KFKFQFF | 1 (ThT. Cat is 1, if Rel. ThT >2) | 1 (ThT. Cat is 1, if Rel. ThT >2) |  | 1 (ThT. Cat is 1, if Rel. ThT >2) | 1.577 | 38 | 1.577 | 1.577 |  |  |  | 1 (ThT. Cat is 1, if Rel. ThT >2) |  | 
KFKFKFQF | 1 (ThT. Cat is 1, if Rel. ThT >2) | 1 (ThT. Cat is 1, if Rel. ThT >2) |  | 1 (ThT. Cat is 1, if Rel. ThT >2) | 3.015 | 1036 | 3.015 | 3.015 | 1 (ThT. Cat is 1, if Rel. ThT >2) |  |  | 1 (ThT. Cat is 1, if Rel. ThT >2) |  | 
